These results are taken from patent US20200369674A1, “ANTI-PAIN COMPOUND AND PREPARATION METHOD THEREOF” (LUNAN PHARMACEUTICAL GROUP CORPORATION, priority 2017, published 2020).

In assay [1] the test system is ICR mice. Description: Hot plate test. Format: in vivo. Conditions: Mus musculus, po; 1 mg/kg intragastric, latency 2.0 hours after administration, hot plate 55° C.; read-out: PTE %. The method, then: (§1) ICR mice, 18-22 g, half of them being male and the other half being female, provided by the Department of Laboratory Animals, Peking University (License No.: SCXK (Beijing) 2016-0010).
The temperature of hot plate was adjusted to 55° C., and the responses of mouse such as licking hind feet and jumping were used as the observation indexes. The time from the placement of mice on copper plate to the appearance of the above responses was defined as latency time. The latency time was measured for three times 30 minutes before administration, and the average value thereof was used as basic threshold, or baseline latency (BL). The animals with a latency time greater than 15 s and less than 5 s were removed, and the residual mice were randomly grouped, 8 animals per group.
Vehicle control group (double-distilled water) and groups for samples to be tested (the compounds and doses thereof were shown in Table 1) were set. All drugs were dissolved in […] before administration, and given by intragastric administration. The latency time was measured 2.0 hours after administration. Percentage of Pain Threshold Elevated Rate (PTE %) of compound on mice was calculated according to the following formula:
PTE %=(latency time of test group−latency time of vehicle control group)/latency time of vehicle control group×100

The test system of assay [2] is ICR mice. In words: Xylene-induced mouse ear swelling test (Effect Example 4). Format: in vivo. Details: key to Inhibition rate (%): Symbol “—” indicates that the data obtained at this dose was not significantly different from the vehicle control group. Conditions: 1 mg/kg intragastric, 50 uL xylene two hours after administration. The method, then:
as §1
ICR mice were randomly grouped, 8 mice per group, half of them being male and the other half being female. Vehicle control group (double-distilled water) and groups for samples to be tested (the compounds and doses thereof were shown in Table 4). All drugs were dissolved in double-distilled water immediately before administration, and given by intragastric administration at predetermined doses. Two hours after administration, 50 uL of xylene was smeared evenly on the inner and outer sides of right ear of mouse. After 30 minutes, the left and right ears of mouse were cut, and circular ear pieces of the same size were punched at the same position on the left and right ears, and weighed. The ear swelling inhibition rate of compound in mice was calculated according to the formula.
Inhibition rate %=(degree of ear swelling in vehicle control group−degree of ear swelling in test group)/degree of ear swelling in vehicle control group×100

In assay [3] the test system is ICR mice. Description: Acetic acid writhing test. In kind it is in vivo. On the set-up: key to Inhibition rate (%): Symbol “—” indicates that the data obtained at this dose was not significantly different from the vehicle control group. The note with it: 0.6% acetic acid ip two hours after administration. The method, then: as §1
ICR mice, half of them being male and the other half being female, were randomly grouped, 8 mice per group. Vehicle control group (double-distilled water), ibuprofen control group, and groups for samples to be tested (the compounds and doses thereof were shown in Table 2) were set. All drugs were dissolved in double-distilled water before administration, and given by intragastric administration at predetermined doses. Two hours after the administration, the mice were intraperitoneally injected with 0.6% acetic acid solution (10 ml/kg, ip), and the number of times the mice writhed (abdomen depressed, buttock raised, body elongated) was recorded within 5-20 minutes. The inhibition rate % of compound on writhing pain in mice was calculated according to the following formula.
Inhibition rate %=(number of writhing times in vehicle control group−number of writhing times in test group)/number of writhing times in vehicle control group×100
For orientation: Writhing tests count abdominal constrictions after an irritant is injected.

The test system of assay [4] is ICR mice. Description: Formalin experiment. In kind it is in vivo. Conditions: Mus musculus, po, 2 h; 1 mg/kg intragastric, 2.5% formalin two hours after administration, phase II 10-60 minutes; read-out: Phase II pain inhibition rate (%). The protocol:
as §1
ICR mice, half of them being male and the other half being female, were randomly grouped, 8 mice per group. Vehicle control group (double-distilled water) and groups for samples to be tested were set, in which the compounds and doses thereof were shown in Table 3. All drugs were dissolved in double-distilled water before administration, and given by intragastric administration at predetermined doses. Two hours after administration, the mice were injected with 20 ul of 2.5% formalin solution in the right hind foot, and the time (s) of licking or biting foot was recorded as an index of pain response, in which 0-5 minutes was phase I, 10-60 minutes was phase II, and the total observation time was 60 minutes. The phase II pain inhibition rate of compound in mice was calculated according to the following formula:
Inhibition rate %=(time of licking or biting foot in vehicle control group−time of licking or biting foot in test group)/time of licking or biting foot in vehicle control group×100

In assay [5] the test system is CCI rats. In words: Thermal stimulation paw withdrawal latency (PWL) in CCI rats. In kind it is in vivo, SD rats. Conditions: 100 mg/kg i.g. daily; for PWL: hot plate 50.5° C., cut-off 14s, mean±SEM. The method, then:
(§2) SD rats, body weight 180 g-220 g, half of them being male and the other half being female, provided by the Department of Laboratory Animals, Peking University. The rats were raised in a standard environment with temperature of 22±0.5° C. and relative humidity of 55±5%, 12 h/12 h light-dark cycle, and fed with standard feed.
(§3) Rat was anesthetized with pentobarbital sodium (60 mg/kg, i.p.), the right hind limb was surgically shaved, fixed in the prone position, a longitudinal incision was made along the middle of the right hind limb of the rat, the muscle was bluntly separated, the sciatic nerve was exposed, and the sciatic nerve bifurcate proximal end was loosely ligated with 4-0 silk suture for 4 times, with an interval of about 1 mm each time, in which the degree of tightness was suitable when it was observed that the right hind leg was slightly shaken. After ligation, the muscle and skin were sutured in sequence. For the sham-operated group, the sciatic nerve was only exposed, but not ligated. The success of modeling was determined by observing whether the hind limb of the rat's operation side was closed, slightly valgus and often vacated, and by measuring the mechanical stimulation paw withdrawal threshold and the thermal stimulation paw withdrawal latency of the rat.
(§4) Before surgery, the mechanical stimulation paw withdrawal thresholds and the thermal stimulation paw withdrawal latencies in the rats were determined, and the rats were grouped as: sham operation group (sham), vehicle group (double-distilled water, i.g.), DXL-A-22 group (2 mg/kg, i.g.), DXL-A-24 group (1 mg/kg, i.g.), and Gabapentin group (100 mg/kg, i.g.). All compounds and drugs were dissolved in double-distilled water, and given by intragastric administration at 1 mL/100 g. From the first day after surgery, the administration was carried out every day, and the mechanical stimulation paw withdrawal threshold and the thermal stimulation paw withdrawal latency were measured 2 hours after administration.
The thermal stimulation paw withdrawal latency (PWL) was measured by a hot plate method. The measurement was carried out on the days 5, 7 and 14 after operation. The temperature of the hot plate was 50.5° C. Timing started when the rat was placed on the hot plate, and stopped when the shaking and foot licking responses of the rat appeared, and this time was the PWL of the rat. The hot plate cut-off time was 14s, and the percentage of analgesia (i.e., MPE %) was calculated according to formula (3):
MPE %=(PWL of test group−PWL of vehicle group)/(cut-off time−PWL of vehicle group)×100 (3)

For assay [6], the system named is CCI rats. Description: Mechanical stimulation paw withdrawal threshold (MWT) in CCI rats. Format: in vivo, SD rats. The note with it: 100 mg/kg i.g. daily; for inhibition rate (absolute %): PTE % vs vehicle; for MWT: mean±SEM; for inhibition rate (relative %): relative to sham minus vehicle. The method, then:
as §2, §3, §4
The mechanical stimulation paw withdrawal threshold (MWT) of rats was detected by von Frey electronic pain tester. The measurement was carried out on the days 5, 7 and 14 after operation. The rats were placed in a transparent plexiglass box (whose bottom was a wire mesh with a gap of 1 mm^2) to adapt to the environment for 30 min. After the rats had no exploration action, the von Frey electronic pain tester was used to stimulate the middle position of paw at the operation side of the rat, and the maximum force caused by rat paw withdrawal response (i.e., MWT) was recorded. The inhibition rate of the compound was calculated according to the following formula:
Absolute increase rate (i.e., PTE %): PTE %=(MWT of test group−MWT of vehicle group)/MWT of vehicle group×100 (1)
Relative increase rate: Inhibition rate %=(MWT of test group−MWT of vehicle group)/(MWT of Sham operation group−MWT of vehicle group)×100 (2)

The mark [7] stands for this setting: Day 5 after operation, section 3.2.
[8] abbreviates: Day 5 after operation, section 3.4.
Setting [9] is: Day 7 after operation, section 3.2.
Where [10] appears, read: Day 7 after operation, section 3.4.
Where [11] appears, read: Day 14 after operation, section 3.2.
Where [12] appears, read: Day 14 after operation, section 3.4.
The mark [13] stands for this setting: Day 5 after operation, section 3.1.
[14] abbreviates: Day 5 after operation, section 3.3.
[15] abbreviates: Day 7 after operation, section 3.1.
The mark [16] stands for this setting: Day 7 after operation, section 3.3.
Setting [17] is: Day 14 after operation, section 3.1.
[18] abbreviates: Day 14 after operation, section 3.3.

On to `Br.Fc1ccc(N2CC[N+]3(CCCC3)CC2)cc1F` [DXL-A-21, 8-(3,4-difluorophenyl)-5,8-diazaspiro[4.5]decan-5-ium bromide], for which the change in vivo at 1 mg/kg in the assay with ICR mice [1] came out at 36.6%. The inhibition in vivo at 1 mg/kg in the assay with ICR mice [2] (Mus musculus, po, 2 h, read-out: Inhibition rate (%)) was determined as 42.5%; in the assay on ICR mice [4] it was 36.6%. Further, the “Inhibition rate (%)” value in the assay with ICR mice [3] (1 mg/kg intragastric) was “—”.
As to `Clc1ccc(N2CC[N+]3(CCCC3)CC2)cc1.[Br-]` [DXL-A-23, 8-(4-chlorophenyl)-5,8-diazaspiro[4.5]decan-5-ium bromide], the change in vivo at 1 mg/kg in the assay with ICR mice [1] is 39.2%. In addition, the “Inhibition rate (%)” value with ICR mice [2] and with ICR mice [3] (1 mg/kg intragastric) was “—” in each case. For the same compound, the inhibition in vivo at 1 mg/kg in the assay with ICR mice [4] stood at 39.2%.
For `Fc1ccccc1N1CC[N+]2(CCCC2)CC1.[Br-]` [DXL-A-18, 8-(2-fluorophenyl)-5,8-diazaspiro[4.5]decan-5-ium bromide], the “Inhibition rate (%)” value in the assay on ICR mice [2] was “—”. Also, the inhibition in vivo at 1 mg/kg is 21.7% in the assay with ICR mice [3] (Mus musculus, po, 2 h, 1 mg/kg intragastric, read-out: Inhibition rate (%)) and 22% with ICR mice [4].
Take `CC(C)Cc1ccc(C(C)C(=O)O)cc1` (stereo not drawn) [Ibuprofen table, Ibuprofen, reference compound]: the inhibition in vivo at 200 mg/kg with ICR mice [3] (Mus musculus, po, 2 h, 200 mg/kg intragastric, read-out: Inhibition rate (%)) is 49.1%.
Turning to `NCC1(CC(=O)O)CCCCC1` [Gabapentin, reference compound], the PWL is given as 11.37 ± 0.32**/ in the assay with CCI rats [5] (setting [7]); 11.37 ± 0.32**/ in the assay on CCI rats [5] (setting [8]); 11.76 ± 0.34**/ in the assay with CCI rats [5] (setting [9]); 11.76 ± 0.34**/ in the assay with CCI rats [5] (setting [10]); 11.88 ± 0.40**/ in the assay with CCI rats [5] (setting [11]); 11.88 ± 0.40**/ in the assay with CCI rats [5] (setting [12]). In addition, the “MPE(%)” value with CCI rats [5] (setting [7]) came to 59.72%; in the assay on CCI rats [5] (setting [8]) it was 54.02%; with CCI rats [5] (setting [9]) it was 66.16%; in the assay with CCI rats [5] (setting [10]) it was 62.48%; with CCI rats [5] (setting [11]), 66.51%; in the assay on CCI rats [5] (setting [12]) it was 67.88%. For the same compound, the “inhibition rate (absolute %)” value in the assay on CCI rats [6] (setting [13]) was 99.36%; in the assay on CCI rats [6] (setting [14]), 87.98%; in the assay on CCI rats [6] (setting [15]), 128.67%; in the assay with CCI rats [6] (setting [16]), 123.00%; in the assay with CCI rats [6] (setting [17]) it was 101.42%; in the assay on CCI rats [6] (setting [18]), 83.36%. The MWT with CCI rats [6] (setting [13]) is 21.73 ± 0.49**/; in the assay with CCI rats [6] (setting [14]), 21.73 ± 0.49**/; with CCI rats [6] (setting [15]) it was 23.37 ± 1.34**/; in the assay with CCI rats [6] (setting [16]) it was 23.37 ± 1.34**/; in the assay on CCI rats [6] (setting [17]), 21.27 ± 0.82**/; in the assay with CCI rats [6] (setting [18]), 21.27 ± 0.82**/. In addition, the “inhibition rate (relative %)” value in the assay with CCI rats [6] (setting [13]) is listed as 40.08%; with CCI rats [6] (setting [14]), 41.04%; in the assay on CCI rats [6] (setting [15]), 47.56%; in the assay with CCI rats [6] (setting [16]), 49.94%; in the assay with CCI rats [6] (setting [17]), 38.46%; in the assay on CCI rats [6] (setting [18]), 36.91%.
